Tests used:
H9 [1] = assay: Anti-HIV activity was evaluated for the concentration that inhibits viral replication by 50%; type: functional, cell-based; conditions: Homo sapiens
H9 [2] = assay: Inhibitory activity against gorwth of uninfected H9 cell growth by 50%; type: functional, cell-based; conditions: Homo sapiens
[3] = Therapeutic index is the ratio of IC50 of compound to that of EC50; conditions: read-out: Therapeutic index

In the case of `Cc1cn([C@H]2C[C@H](N=[N+]=[N-])[C@@H](CO)O2)c(=O)[nH]c1=O` [ZIDOVUDINE], the EC50 (H9 [1]) is reported as 0.045 µM.
With `CC1(C)Oc2ccc3ccc(=O)oc3c2[C@@H](OC(=O)C23CCC(C)(C(=O)O2)C3(C)C)[C@H]1OC(=O)C12CCC(C)(C(=O)O1)C2(C)C` (stereo partly specified) the IC50 (H9 [2]) was 35 µM, the selectivity ratio [3] was 137000 and the EC50 (H9 [1]) was 0.000256 µM.
For `COc1cc2c(c3oc(=O)ccc13)[C@@H](OC(=O)C13CCC(C)(C(=O)O1)C3(C)C)[C@@H](OC(=O)C13CCC(C)(C(=O)O1)C3(C)C)C(C)(C)O2` (stereo partly specified), the IC50 (H9 [2]) was over 153 µM, the selectivity ratio [3] was over 403000 and the EC50 (H9 [1]) was 0.000138 µM.
`COc1cc(=O)oc2c3c(ccc12)OC(C)(C)[C@H](OC(=O)C12CCC(C)(C(=O)O1)C2(C)C)[C@@H]3OC(=O)C12CCC(C)(C(=O)O1)C2(C)C` (stereo partly specified) showed an IC50 (H9 [2]) of over 153 µM, a selectivity ratio [3] of over 51000 and an EC50 (H9 [1]) of 0.00276 µM.
With `COc1cc2ccc(=O)oc2c2c1OC(C)(C)[C@H](OC(=O)C13CCC(C)(C(=O)O1)C3(C)C)[C@@H]2OC(=O)C12CCC(C)(C(=O)O1)C2(C)C` (stereo partly specified) the IC50 (H9 [2]) was over 153 µM, the selectivity ratio [3] was over 9.68 and the EC50 (H9 [1]) was 24.5 µM.
`COc1cc2ccc3c(c2oc1=O)[C@@H](OC(=O)C12CCC(C)(C(=O)O1)C2(C)C)[C@@H](OC(=O)C12CCC(C)(C(=O)O1)C2(C)C)C(C)(C)O3` (stereo partly specified) gave an IC50 (H9 [2]) of over 153 µM, a selectivity ratio [3] of over 25500 and an EC50 (H9 [1]) of 0.006 µM.
